Experimental data taken from patent publication US20060142323A1, “Dual binding site acetylcholinesterase inhibitors for the treatment of alzheimer's disease” (priority 2002, published 2006).
Where two headings read alike, the source gives them in different places.

Assays:
[1] = biological target: T1, AChE from bovine erythrocytes (Bos taurus, UniProt P23795); assay: Acetylcholinesterase (AChE) inhibition (from bovine erythrocytes), Ellman method at 30° C., Digiscan 340T; assay type: biochemical
T1 construct: 0.02 units AChE (Sigma Chemical Co. from bovine erythrocytes); purchased Sigma Chemical Co; host or cells: bovine erythrocytes
T1 sequence (P23795 31-614 isoform P23795-2 limits assumed): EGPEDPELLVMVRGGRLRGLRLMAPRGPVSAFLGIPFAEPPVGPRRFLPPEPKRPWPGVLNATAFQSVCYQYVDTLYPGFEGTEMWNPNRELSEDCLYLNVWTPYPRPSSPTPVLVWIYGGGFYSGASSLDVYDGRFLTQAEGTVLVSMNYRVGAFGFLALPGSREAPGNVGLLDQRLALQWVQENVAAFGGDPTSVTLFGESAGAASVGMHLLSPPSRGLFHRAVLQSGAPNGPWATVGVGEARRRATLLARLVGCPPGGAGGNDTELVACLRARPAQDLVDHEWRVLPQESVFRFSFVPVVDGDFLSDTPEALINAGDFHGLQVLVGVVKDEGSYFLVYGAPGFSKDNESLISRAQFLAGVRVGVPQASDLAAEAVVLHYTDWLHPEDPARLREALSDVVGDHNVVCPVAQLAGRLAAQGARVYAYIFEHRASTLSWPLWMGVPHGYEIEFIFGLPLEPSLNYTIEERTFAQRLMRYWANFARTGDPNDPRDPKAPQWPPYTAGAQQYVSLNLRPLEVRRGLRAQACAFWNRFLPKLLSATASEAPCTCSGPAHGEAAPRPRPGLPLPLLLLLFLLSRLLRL
Experimental: Acetylcholinesterase (AChE) Inhibition (from Bovine Erythrocytes)
AChE inhibitory activity was evaluated at 30° C. by the colorimetric method reported by Ellman [Ellman, G. L.; Courtney, K. D.; Andres, B.; Featherstone, R. M. Biochem. Pharmacol. 1961, 7, 88-95]. The assay solution consisted of 0.1 M phosphate buffer pH 8, 0.3 mM 5,5′-dithiobis (2-nitrobenzoic acid) (DTNB, Ellman's reagent), 0.02 units AChE (Sigma Chemical Co. from bovine erythrocytes), and 0.5 mM acetylthiocholine iodide as the substrate of the enzymatic reaction. The compounds tested were added to the assay solution and preincubated with the enzyme for 5 min at 30° C. After that period, the substrate was added. The absorbance changes at 405 nm were recorded for 5 min with a microplate reader Digiscan 340T, the reaction rates were compared, and the percent inhibition due to the presence of test compounds was calculated. The reaction rate was calculated with, at least, triplicate measurements, and the percent inhibition due to the presence of test compound was calculated relative to the compound-free control.

BuChE from human serum = biological target: T2, BuChE from human serum (Homo sapiens, UniProt P06276); assay: Butyrylcholinesterase (BuChE) inhibition (from human serum); assay type: biochemical
T2 construct: The assay solution consisted of 0.01 units BuChE from human serum; from tissue; host or cells: human serum
Experimental: Butyrylcholinetersae (BuChE) Inhibition (from Human Serum)
BuChE inhibitory activity was evaluated at 30° C. by the colorimetric method reported by Ellman (Ellman, G. L.; Courtney, K. D.; Andres, B.; Featherstone, R. M. Biochem. Pharmacol. 1961, 7, 88-95]. The assay solution consisted of 0.01 units BuChE from human serum, 0.1 M sodium phosphate buffer pH 8, 0.3 mM 5,5′-dithiobis (2-nitrobenzoic acid) (DTNB, Ellman's reagent), and 0.5 mM butylthiocholine iodide as the substrate of the enzymatic reaction. Enzyme activity was determined by measuring the absorbance at 405 nm during 5 minutes with a microplate reader Digiscan 340T. The tested compounds were preincubated with the enzyme for 10 minutes at 30° C. The reaction rate was calculated with, at least, triplicate measurements.

[2] = system: human neuroblastoma cell line SH—SY5Y; assay: Toxicity measurement (LDH) in SH-SY5Y cells; assay type: cell-based; details: 24 hours exposure
Experimental: The cytotoxicity effect of the molecules was tested in the human neuroblastoma cell line SH—SY5Y. These cells were cultured in 96-well plates in minimum essential medium, Han's F12 medium, supplemented with 10% fetal bovine serum, 1% glutamine and 1% penicillin/streptomycin, and grown in. a 5% CO2 humidified incubator at 37° C.
The cells were plated at 10^4 cells for each well, at least, 48 hours before the toxicity measure. Cells were exposed for 24 hours to the compounds at different concentrations (from 10^−5 to 10^−9), quantitative assessment of cell death was made by measurement of the intracellular enzyme lactate dehydrogenase (LDH) (citotoxicity detection kit, Roche). The cuantity of LDH was evaluated in a microplate reader Anthos 2010, at 492 and 620 nm. Controls were taken as 100% viability.

AChE peripheral site = AChE peripheral site (Homo sapiens, UniProt P22303); assay: Propidium competition (fluorescence); assay type: binding; details: 20 μM propidium iodide, AChE incubated at least 6 hours with compound
Experimental: Fluorescence was measured in a Fluostar optima plate reader (BMG). Measurements were carried out in 100 μl solution volume, in 96-well plates. The buffer used was 1 mM Tris/HCl, pH 8.0. […] AChE was incubated, at least 6 hours, with the molecules at different concentrations. 20 μM propidium iodide was added 10 min before fluorescence measurement.

[3] = system: SH—SY5Y cells exposed to β-amyloid fragment 25-35; assay: Effects on β-amyloid toxicity (fragment 25-35, LDH viability); assay type: cell-based, human; details: 1 hour pretreatment, Aβ 25-35 at 200 μM, 24 hours
Experimental: Effects on β-Amiloid Toxicity
We have tested if some of these molecules interfere with amyloid peptide toxicity. Cells SH—SY5Y were cultured in 96-well plates as toxicity experiments. Cells were pretreated for 1 hour with the compounds at different concentrations (from 10^−5 to 10^−9), immediately neuronal death is induced adding synthetic peptide β-amyloid, fragment 25-35 (A25-35) at 200 μM. 24 hours later cell viability was assessed with the LDH assay; results are reported relative to untreated wells.

[4] = biological target: T3, AChE from human erythrocytes (Homo sapiens, UniProt P22303); assay: AChE inhibition (from human erythrocytes), Ellman method; assay type: biochemical; details: 10 min preincubation at 30° C., 400 μM acetylthiocholine iodide, pH 8
T3 construct: 0.02 unit/ml AChE (Sigma Chemical Co. from human erythrocytes); purchased Sigma Chemical Co; host or cells: human erythrocytes
Experimental: AChE Inhibition (from Human Erythrocytes)
The method of Ellman et al. (Ellman, G. L.; Courtney, K. D.; Andres, B.; Featherstone, R. M. Biochem. Pharmacol. 1961, 7, 88-95) was followed. The assay solution consisted of 0.1 M phosphate buffer pH 8, 200 μM 5,5′-dithiobis(2-nitrobenzoic acid) (DTNB, Ellan's reagent), 0.02 unit/ml AChE (Sigma Chemical Co. from human erythrocytes), and 400 μM acetylthiocholine iodide as the substrate of the enzymatic reaction. The compounds tested were added to the assay solution and pre incubated with the enzyme for 10 min at 30° C. After that period, the substrate was added. The absorbance changes at 412 nm were recorded for 5 min with a Perkin-Elmer 550 SE UV/VIS spectrometer, the reaction rates were compared, and the percent inhibition due to the presence of test compounds was calculated.

β-amyloid-AChE complex = biological target: T4, β-amyloid-AChE complex (Homo sapiens, UniProt P22303); assay: Inhibition of β-amyloid aggregation (AChE-Aβ complex, Congo Red binding); assay type: biochemical; details: propidium iodide 50 μM, Aβ1-40 0.1 mM, Aβ-AChE 200:1, 48 hours
T4 construct: purchased Sigma-Aldrich
Experimental: Inhibition of β-Amyloid Aggregation:
Stock solutions of Aβ1-40 at 3.5 mM were prepared in DMSO. The amount of peptide used in the assays was 0.1 mM. Human recombinant AChE (Sigma-Aldrich) was used at a molar ratio Aβ-AChE 200:1. For the aggregation studies the peptide was mixed with the appropriate amount of AChE in PBS pH 7.4 and stirred for 48 hours in -a microtiter plate at room temperature. The fibrils obtained were characterized by Congo Red (CR) binding.
For the inhibition of β-amyloid aggregation, the compounds tested were used at the IC50 defined in the previous paragraph of the biological evaluation. Propidium iodide 50 μM for comparison.

[5] = bovine erythrocytes AChE, 30° C., 5 min preincubation, read-out: IC50 AchE
[6] = human serum BuChE, 30° C., 10 min preincubation, read-out: IC50 BuChE

T2 sequence (P06276 29-602): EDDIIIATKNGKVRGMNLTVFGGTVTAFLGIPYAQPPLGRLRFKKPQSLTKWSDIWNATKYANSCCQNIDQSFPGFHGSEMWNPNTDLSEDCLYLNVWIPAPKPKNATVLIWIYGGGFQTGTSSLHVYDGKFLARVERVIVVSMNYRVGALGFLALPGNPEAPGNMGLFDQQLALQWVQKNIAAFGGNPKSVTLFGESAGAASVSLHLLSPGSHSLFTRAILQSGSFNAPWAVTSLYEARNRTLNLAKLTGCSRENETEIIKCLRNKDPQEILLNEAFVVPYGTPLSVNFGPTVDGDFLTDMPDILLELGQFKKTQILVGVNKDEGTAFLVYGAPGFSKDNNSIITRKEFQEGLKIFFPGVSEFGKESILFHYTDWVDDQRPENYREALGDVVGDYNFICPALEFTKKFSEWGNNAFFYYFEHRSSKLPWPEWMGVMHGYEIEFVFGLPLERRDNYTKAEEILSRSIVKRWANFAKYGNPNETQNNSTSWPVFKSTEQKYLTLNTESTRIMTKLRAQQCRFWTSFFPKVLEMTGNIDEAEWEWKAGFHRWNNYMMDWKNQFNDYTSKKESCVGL
Sequence of AChE peripheral site (P22303 32-614): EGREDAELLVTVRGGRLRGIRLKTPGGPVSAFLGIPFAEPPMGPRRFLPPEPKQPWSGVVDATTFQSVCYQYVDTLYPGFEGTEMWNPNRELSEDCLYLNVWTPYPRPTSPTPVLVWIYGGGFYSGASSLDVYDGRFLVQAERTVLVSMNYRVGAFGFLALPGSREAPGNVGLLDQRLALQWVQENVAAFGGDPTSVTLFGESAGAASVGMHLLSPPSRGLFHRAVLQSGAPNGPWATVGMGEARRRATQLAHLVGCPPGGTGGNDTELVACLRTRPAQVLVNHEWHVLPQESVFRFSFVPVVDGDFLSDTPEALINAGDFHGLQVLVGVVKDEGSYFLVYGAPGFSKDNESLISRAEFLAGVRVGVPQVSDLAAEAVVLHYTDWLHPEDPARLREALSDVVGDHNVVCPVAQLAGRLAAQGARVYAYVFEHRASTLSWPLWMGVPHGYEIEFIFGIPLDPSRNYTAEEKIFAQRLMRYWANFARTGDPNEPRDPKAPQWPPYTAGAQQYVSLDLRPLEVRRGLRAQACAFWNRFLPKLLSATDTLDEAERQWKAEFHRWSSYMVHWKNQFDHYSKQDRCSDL
T3 sequence (P22303 32-617 isoform P22303-2 limits assumed): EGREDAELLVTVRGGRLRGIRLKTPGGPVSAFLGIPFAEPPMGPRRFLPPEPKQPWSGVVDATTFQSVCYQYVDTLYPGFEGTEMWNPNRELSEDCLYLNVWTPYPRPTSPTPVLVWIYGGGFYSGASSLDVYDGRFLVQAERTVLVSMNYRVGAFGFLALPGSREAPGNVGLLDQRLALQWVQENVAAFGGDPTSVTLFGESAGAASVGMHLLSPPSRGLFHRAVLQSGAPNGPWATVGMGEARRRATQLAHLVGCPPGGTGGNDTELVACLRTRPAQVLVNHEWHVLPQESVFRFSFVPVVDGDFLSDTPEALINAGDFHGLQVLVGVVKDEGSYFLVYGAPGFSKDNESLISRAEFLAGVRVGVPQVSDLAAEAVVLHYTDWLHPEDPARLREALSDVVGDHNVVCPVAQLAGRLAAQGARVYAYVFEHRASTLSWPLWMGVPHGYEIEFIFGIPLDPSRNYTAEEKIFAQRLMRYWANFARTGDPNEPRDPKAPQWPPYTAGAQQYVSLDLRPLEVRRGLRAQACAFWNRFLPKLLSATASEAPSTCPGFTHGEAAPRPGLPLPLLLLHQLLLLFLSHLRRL
T4 sequence (P22303 32-614, one chain of several): as the sequence (P22303 32-614) above

| Structure (SMILES) | IC50 [1, 5] [nM] | IC50 (BuChE from human serum; [6]) [nM] | Toxicity [2] [µM] | Propidium competition (AChE peripheral site) [µM] | inhibition of Aβ(25-35) toxicity [3] [µM] | IC50 [1] [nM] | IC50 (BuChE from human serum) [nM] | IC50 [4] [nM] | reduction of the β-amyloid-AChE complex aggregation (β-amyloid-AChE complex) [%] |
| --- | --- | --- | --- | --- | --- | --- | --- | --- | --- |
| O=C1c2ccccc2C(=O)N1CCCCCCNc1c2ccccc2nc2ccccc12 [Compound 6, 2-[6-(Acridin-9-ylamino)-hexyl]-isoindole-1,3-dione] | 900 | 8 | >100 | 10 | – | – | – | – | – |
| O=C1c2ccccc2C(=O)N1CCCCCCCCNc1c2ccccc2nc2ccccc12 [Compound 8, 2-[8-(Acridin-9-ylamino)-octyl]-isoindole-1,3-dione] | 1000 | 1000 | 100 | >100 | – | – | – | – | – |
| Clc1ccc2c(NCCCCCCCCNc3c4ccccc4nc4ccccc34)c3c(nc2c1)CCCC3 [Compound 24, N-Acridin-9-yl-N′-(6-chloro-1,2,3,4-tetrahydro-acridin-9-yl)-octane-1,8-diamine] | 1 | 35 | 5 | 10 | – | – | – | – | – |
| CCn1c(=NCCCCCCCCNc2c3c(nc4ccccc24)CCCC3)sn(C(C)C)c1=O [Compound 17, 4-Ethyl-2-isopropyl-5-[8-(1,2,3,4-tetrahydro-acridin-9-ylamino)-octylimino]-[1,2,4]thiadiazolidin-3-one] | 200 | 10 | >100 | 0.1 | – | – | – | – | – |
| O=C1c2ccccc2C(=O)N1CCCCCCCCNc1c2c(nc3ccccc13)CCCC2 [Compound 5, 2-[8-(1,2,3,4-Tetrahydro-acridin-9-ylamino)-octyl]-isoindole-1,3-dione] | 90 | 30 | 5 | >100 | – | – | – | – | – |
| Clc1ccc2c(NCCCCCCCNc3c4ccccc4nc4ccccc34)c3c(nc2c1)CCCC3 [Compound 23, N-Acridin-9-yl-N′-(6-chloro-1,2,3,4-tetrahydro-acridin-9-yl)-heptane-1,7-diamine] | 0.4 | 20 | 0.5 | 1 | 1 | – | – | – | – |
| CN(CCCNC(=O)CN1C(=O)c2ccccc2C1=O)CCCNc1c2c(nc3cc(Cl)ccc13)CCCC2 [Compound 11, N-(3-{[3-(6-Chloro-1,2,3,4-tetrahydro-acridin-9-ylamino)-propyl]-methyl-amino}-propyl)-2-(1,3-dioxo-1,3-dihydro-isoindol-2-yl)-acetamide] | 3 | 75 | >100 | 10 | – | – | – | – | – |
| CCn1c(=NCCCCCCNc2c3c(nc4ccccc24)CCCC3)sn(C(C)C)c1=O [Compound 18, 4-Ethyl-2-isopropyl-5-[6-(1,2,3,4-tetrahydro-acridin-9-ylamino)-hexyl-imino]-[1,2,4]thiadiazolidin-3-one] | – | – | >10 | >100 | – | 2250 | 1000 | – | – |
| O=C1c2ccccc2C(=O)N1CCCCCCCNc1c2c(nc3ccccc13)CCCC2 [Compound 4, 2-[7-(1,2,3,4-Tetrahydro-acridin-9-ylamino)-heptyl]-isoindole-1,3-dione] | 3000 | 10 | >100 | 10 | – | – | – | – | – |
| O=C1c2ccccc2C(=O)N1CCCCCCCCCNc1c2ccccc2nc2ccccc12 [Compound 9, 2-[9-(Acridin-9-ylamino)-nonyl]-isoindole-1,3-dione] | 2 | 90 | >100 | 1 | – | – | – | – | – |
| COc1cc2c(cc1OC)C(=O)C(CNCCCCCCNc1c3c(nc4ccccc14)CCCC3)C2 (stereo not shown) [Compound 2, 5,6-Dimethoxy-2-{[6-(1,2,3,4-tetrahydro-acridin-9-ylamino)-hexylamino]-methyl}-indan-1-one] | – | – | – | – | – | – | – | 100 | – |
| CC[N+](C)(CC)CCC[n+]1c(-c2ccccc2)c2cc(N)ccc2c2ccc(N)cc21 [propidium, Propidium iodide, reference compound] | – | – | – | – | – | – | – | – | 18.1 |
| CN(CCCNc1c2c(nc3cc(Cl)ccc13)CCCC2)CCCNc1c2c(nc3cc(Cl)ccc13)CCCC2 [Compound 19] | 0.1 | 1.5 | 10 | 10 | – | – | – | – | – |
| O=C(CN1C(=O)c2ccccc2C1=O)NCCCCCCCNc1c2c(nc3cc(Cl)ccc13)CCCC2 [Compound 10, N-[7-(6-Chloro-1,2,3,4-tetrahydro-acridin-9-ylamino)-heptyl]-2-(1,3-dioxo-1,3-dihydro-isoindol-2-yl)-acetamide] | 20 | 650 | >100 | 10 | – | – | – | – | – |
| O=C(CN1C(=O)c2ccccc2C1=O)NCCCCCCNc1c2c(nc3cc(Cl)ccc13)CCCC2 [Compound 12, N-[6-(6-Chloro-1,2,3,4-tetrahydro-acridin-9-ylamino)-hexyl]-2-(1,3-dioxo-1,3-dihydro-isoindol-2-yl)-acetamide] | 10 | 200 | >100 | 100 | – | – | – | – | – |
